# Measurements taken from PubChem BioAssay (NCI).
#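 GI50 is the concentration that inhibits growth by half. At the TGI there is no net growth.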
# Tests used:
# Experiment in all cases: NCI tumour cell line growth inhibition, 384-well format
# [1] = test system: HL-60(TB) leukemia
# [2] = test system: TK-10 renal
# [3] = test system: OVCAR-3 ovarian
# [4] = test system: DU-145 prostate
# [5] = test system: COLO 205 colon
# [6] = test system: PC-3 prostate
# [7] = test system: M14 melanoma
# [8] = test system: HT29 colon
# [9] = test system: HS 578T breast
# [10] = test system: SR leukemia
# [11] = test system: NCI-H23 lung
# [12] = test system: MOLT-4 leukemia
# [13] = test system: HOP-92 NSCLC
# [14] = test system: RXF 393 renal
# [15] = test system: KM12 colon
# [16] = test system: CCRF-CEM leukemia
# [17] = test system: MDA-MB-231 breast
# [18] = test system: A549 NSCLC
# [19] = test system: 786-0 renal
# [20] = test system: SW-620 colon
# [21] = test system: CAKI-1 renal
# [22] = test system: EKVX NSCLC
# [23] = test system: OVCAR-8 ovarian
# [24] = test system: ACHN renal
# [25] = test system: SNB-75 CNS
# [26] = test system: MALME-3M melanoma
# [27] = test system: UACC-62 melanoma
# [28] = test system: RPMI-8226 leukemia
# [29] = test system: OVCAR-4 ovarian
# [30] = test system: NCI-H322M lung
# [31] = test system: NCI/ADR-RES ovarian
# [32] = test system: SF-268 CNS
# [33] = test system: NCI-H522 lung
# [34] = test system: MDA-MB-468 breast
# [35] = test system: HCT-15 colon
# [36] = test system: SF-295 CNS
# [37] = test system: SK-OV-3 ovarian
# [38] = test system: OVCAR-5 ovarian
# [39] = test system: SK-MEL-5 melanoma
# [40] = test system: T-47D breast
# [41] = test system: MCF7 breast
# [42] = test system: UACC-257 melanoma
# [43] = test system: LOX IMVI melanoma
# [44] = test system: SF-539 CNS
# [45] = test system: NCI-H226 lung
# [46] = test system: BT-549 breast
# [47] = test system: U251 glioblastoma
# [48] = test system: HOP-62 NSCLC
# [49] = test system: SNB-19 CNS
# [50] = test system: HCC-2998 colon
# [51] = test system: HCT-116 colon
# [52] = test system: A498 renal
# [53] = test system: MDA-MB-435 melanoma
# [54] = test system: UO-31 renal
# [55] = test system: SK-MEL-28 melanoma
# [56] = test system: SN12C renal
# [57] = test system: IGROV1 ovarian
# [58] = test system: NCI-H460 NSCLC
smiles,measurement,setting,value
C=CC(=O)N1CCN(c2nc(=O)n(-c3c(C)ccnc3C(C)C)c3nc(-c4c(O)cccc4F)c(F)cc23)[C@@H](C)C1,GI50,[1],19.8 µM
same,TGI,[1],35.5 µM
same,GI50,[2],46.2 µM
same,TGI,[2],> 100 µM
same,GI50,[3],22 µM
same,TGI,[3],50.8 µM
same,GI50,[4],25.3 µM
same,TGI,[4],74.7 µM
same,GI50,[5],24.7 µM
same,TGI,[5],58.8 µM
same,GI50,[6],35.9 µM
same,TGI,[6],> 94.4 µM
same,GI50,[7],32.1 µM
same,TGI,[7],> 79.9 µM
same,GI50,[8],33.2 µM
same,TGI,[8],> 100 µM
same,GI50,[9],13.9 µM
same,TGI,[9],35.1 µM
same,GI50,[10],6.68 µM
same,TGI,[10],18.9 µM
same,TGI,[11],0.592 µM
same,GI50,[12],9.94 µM
same,TGI,[12],22.2 µM
same,GI50,[13],48.6 µM
same,TGI,[13],> 100 µM
same,GI50,[14],4.34 µM
same,TGI,[14],14.3 µM
same,GI50,[15],31.5 µM
same,TGI,[15],> 75.8 µM
same,GI50,[16],18.8 µM
same,TGI,[16],34.2 µM
same,GI50,[17],24.3 µM
same,TGI,[17],57 µM
same,GI50,[18],32.5 µM
same,TGI,[18],> 85.6 µM
same,GI50,[19],21.4 µM
same,TGI,[19],44.4 µM
same,GI50,[20],36.8 µM
same,TGI,[20],> 100 µM
same,GI50,[21],30.9 µM
same,TGI,[21],> 89.7 µM
same,GI50,[22],37.1 µM
same,TGI,[22],> 100 µM
same,GI50,[23],19.7 µM
same,TGI,[23],36.6 µM
same,GI50,[24],30.2 µM
same,TGI,[24],> 68.2 µM
same,GI50,[25],54.2 µM
same,TGI,[25],97.5 µM
same,GI50,[26],14.7 µM
same,TGI,[26],35.3 µM
same,GI50,[27],43.5 µM
same,TGI,[27],> 100 µM
same,GI50,[28],16.6 µM
same,TGI,[28],32.5 µM
same,GI50,[29],43.8 µM
same,TGI,[29],> 100 µM
same,GI50,[30],44.6 µM
same,TGI,[30],> 100 µM
same,GI50,[31],> 100 µM
same,TGI,[31],> 100 µM
same,GI50,[32],27.8 µM
same,TGI,[32],79.8 µM
same,GI50,[33],21.1 µM
same,TGI,[33],43.2 µM
same,GI50,[34],13 µM
same,TGI,[34],37.2 µM
same,GI50,[35],27.2 µM
same,TGI,[35],> 65.3 µM
same,GI50,[36],33.4 µM
same,TGI,[36],> 88.3 µM
same,GI50,[37],46.5 µM
same,TGI,[37],> 100 µM
same,GI50,[38],> 100 µM
same,TGI,[38],> 100 µM
same,GI50,[39],21.6 µM
same,TGI,[39],46.5 µM
same,GI50,[40],> 81.3 µM
same,TGI,[40],> 100 µM
same,GI50,[41],36.9 µM
same,TGI,[41],> 100 µM
same,GI50,[42],37.1 µM
same,TGI,[42],> 100 µM
same,GI50,[43],16.6 µM
same,TGI,[43],31.8 µM
same,GI50,[44],17.4 µM
same,TGI,[44],33.3 µM
same,GI50,[45],20.5 µM
same,TGI,[45],52.2 µM
same,GI50,[46],15.7 µM
same,TGI,[46],35.2 µM
same,GI50,[47],22 µM
same,TGI,[47],52.6 µM
same,GI50,[48],0.0543 µM
same,TGI,[48],26 µM
same,GI50,[49],53.9 µM
same,TGI,[49],> 100 µM
same,GI50,[50],15 µM
same,TGI,[50],29.6 µM
same,GI50,[51],17.5 µM
same,TGI,[51],35.6 µM
same,GI50,[52],31.1 µM
same,TGI,[52],> 82.8 µM
same,GI50,[53],62.4 µM
same,TGI,[53],> 100 µM
same,GI50,[54],69.7 µM
same,TGI,[54],> 100 µM
same,GI50,[55],> 100 µM
same,TGI,[55],> 100 µM
same,GI50,[56],50.3 µM
same,TGI,[56],> 100 µM
same,GI50,[57],27 µM
same,TGI,[57],71 µM
same,GI50,[58],28.2 µM
same,TGI,[58],65.4 µM
